Columns and labels:
[1] = tested on: C. difficile (NCTC 11204 and thirty-two clinical isolates); assay: Minimum Inhibitory Concentration (MIC) against C. difficile, microtiter plate, anaerobic, 48 hours; type: cell-based, Clostridium difficile
Experimental: (§1) Compounds 4PYcq and 4PYOfi were screened against one NCTC strain and thirty-two clinical isolates of Clostridium difficile as described below.
(§2) The antimicrobial compounds were prepared by adding 5.12 mg of each compound to 1 ml of DMSO. From each solution 100 μl was then aseptically transferred into 1 ml of sterile distilled water to give a concentration of 512 μg/ml. 100 μl of each diluted compound was then added to the first well of a sterile 96-well microliter plate. Serial dilutions were performed to give a concentration range spanning from 0 to 512 μg/ml of each compound. The microtiter plate containing the antimicrobials was left to equilibrate in an anaerobic cabinet for 3 hours before the addition of C. difficile cells. An overnight culture of C. difficile (NCTC 11204) was standardized to an OD^600 of 0.04 (approximately 10^6 CFU/ml), using Wilkins Chalgren broth and was vortexed for 60 seconds to ensure there was a uniform suspension. 100 μl of standardized culture was then added to each well of the microtiter plate, containing the equilibrated antimicrobials. The final concentrations of the antimicrobials in the wells therefore ranged from […] and the concentration of the culture was 10^5 CFU/ml in each well. The microtiter plate was incubated at 37° C., for 48 hours under anaerobic conditions. The MIC was determined as the lowest concentration of antimicrobial agent inhibiting the total growth of C. difficile cells. After incubation, the total solution from each well was aseptically spread onto a separate Wilkins chalgren agar plate. Plates were incubated for 48 hours, at 37° C., under anaerobic conditions. The number of colonies on each plate was counted after incubation and the MBC was determined as the lowest concentration of the antimicrobial agent at which 99.9% of organisms in the original inoculum were killed.

[2] = tested on: C. difficile (NCTC 11204 and thirty-two clinical isolates); assay: Minimum Bactericidal Concentration (MBC) against C. difficile, 99.9% kill; type: cell-based, Clostridium difficile
Experimental: as §1, §2

[3] = tested on: Propionibacterium acnes; assay: MIC against Propionibacterium acnes, microtitre double dilution in BHI; type: cell-based
Experimental: Compounds 4PYcq and 4PYOfi were screened against one NCTC stain and seven clinical isolates of Propionibacterium acnes as described below.
Bacterial strains of Propionibacterium acnes, stored on beads at −20° C., were plated onto Brain heart infusion (BHI) agar plates. The cultures were incubated anaerobically for 4 days at 37° C.
Bacterial suspensions were prepared by diluting bacterial suspensions with BHI to obtain bacterial concentrations approximately 2×10^6 cfu/ml.
The test antimicrobial compounds were prepared by diluting the compound with appropriate nutrient broth to obtain correct stock solution. 50 μl of BHI were aliquoted onto the wells of the round-bottomed microtitre plate. 50 μl of the antimicrobial compounds were added onto the wells in the first column of the plate and several serial double dilutions were performed along the wells on each row. Following the series of double dilutions of the test compound the bacterial suspension were added onto each well except on the last column which served as a negative control. The lowest concentration of the test compound which inhibited bacterial growth was regarded as MIC of the compound.

[4] = tested on: Acinetobater spp.; assay: activity against Acinetobacter spp.; type: cell-based; settings: Gram-negative bacterium
[5] = Clostridium difficile Isolate 1
[6] = Clostridium difficile Isolate 2
[7] = Clostridium difficile Isolate 3
[8] = Clostridium difficile Isolate 4
[9] = Clostridium difficile Isolate 5
[10] = Clostridium difficile Isolate 6
[11] = Clostridium difficile Isolate 7
[12] = Clostridium difficile Isolate 8
[13] = Clostridium difficile Isolate 9
[14] = Clostridium difficile Isolate 10
[15] = Clostridium difficile Isolate 11
[16] = Clostridium difficile Isolate 12
[17] = Clostridium difficile Isolate 13
[18] = Clostridium difficile Isolate 14
[19] = Clostridium difficile Isolate 15
[20] = Clostridium difficile Isolate 16
[21] = Clostridium difficile Isolate 17
[22] = Clostridium difficile Isolate 18
[23] = Clostridium difficile Isolate 19
[24] = Clostridium difficile Isolate 20
[25] = Clostridium difficile Isolate 21
[26] = Clostridium difficile Isolate 22
[27] = Clostridium difficile Isolate 23
[28] = Clostridium difficile Isolate 24
[29] = Clostridium difficile Isolate 25
[30] = Clostridium difficile Isolate 26
[31] = Clostridium difficile Isolate 27
[32] = Clostridium difficile Isolate 28
[33] = Clostridium difficile Isolate 29
[34] = Clostridium difficile Isolate 30
[35] = Clostridium difficile Isolate 31
[36] = Clostridium difficile Isolate 32
[37] = Clostridium difficile NCTC 11204

Work on NC(=NN=Cc1ccc([N+](=O)[O-])o1)c1cc[n+]([O-])cc1 (mixture of isomers) [Compound 4PYOfi] yielded an MIC [1, 5] of 16 to 32 µg/mL, an MIC [1, 6] of 4 to 8 µg/mL and an MIC [1, 7] of 8 to 16 µg/mL. For the same molecule, the MIC [1, 8] was 64 to 128 µg/mL, the MIC [1, 9] was 2 to 4 µg/mL and the MIC [1, 10] was 16 to 32 µg/mL. For the same molecule, the MIC [1, 11] was 32 to 64 µg/mL, the MIC [1, 12] was 2 to 4 µg/mL and the MIC [1, 13] was 128 to 256 µg/mL. It also gave an MIC [1, 14] of 32 to 64 µg/mL, an MIC [1, 15] of 2 to 4 µg/mL and an MIC [1, 16] of 2 to 4 µg/mL. It also gave an MIC [1, 17] of 64 to 128 µg/mL, an MIC [1, 18] of 2 to 4 µg/mL and an MIC [1, 19] of 2 to 4 µg/mL. For the same molecule, the MIC [1, 20] was 2 to 4 µg/mL, the MIC [1, 21] was 1 to 2 µg/mL and the MIC [1, 22] was 1 to 2 µg/mL. The MIC [1, 23] was 8 to 16 µg/mL, the MIC [1, 24] was 2 to 4 µg/mL and the MIC [1, 25] was 16 to 32 µg/mL. It also gave an MIC [1, 26] of 4 to 8 µg/mL, an MIC [1, 27] of 2 to 4 µg/mL and an MIC [1, 28] of 4 to 8 µg/mL. It also gave an MIC [1, 29] of 2 to 4 µg/mL, an MIC [1, 30] of 2 to 4 µg/mL and an MIC [1, 31] of 16 to 32 µg/mL. It also gave an MIC [1, 32] of 16 to 32 µg/mL, an MIC [1, 33] of 4 to 8 µg/mL and an MIC [1, 34] of 16 to 32 µg/mL. For the same molecule, the MIC [1, 35] was 4 to 8 µg/mL, the MIC [1, 36] was 4 to 8 µg/mL and the MIC [1, 37] was 2 to 4 µg/mL. It also gave an MBC [2, 5] of 32 to 64 µg/mL, an MBC [2, 6] of 16 to 32 µg/mL and an MBC [2, 7] of 8 to 16 µg/mL. For the same molecule, the MBC [2, 8] was 64 to 128 µg/mL, the MBC [2, 9] was 2 to 4 µg/mL and the MBC [2, 10] was 16 to 32 µg/mL. For the same molecule, the MBC [2, 11] was 32 to 64 µg/mL, the MBC [2, 12] was 8 to 16 µg/mL and the MBC [2, 13] was 128 to 256 µg/mL. It also gave an MBC [2, 14] of 32 to 64 µg/mL, an MBC [2, 15] of 4 to 8 µg/mL and an MBC [2, 16] of 4 to 8 µg/mL. For the same molecule, the MBC [2, 17] was 128 to 256 µg/mL, the MBC [2, 18] was 4 to 8 µg/mL and the MBC [2, 19] was 8 to 16 µg/mL. For the same molecule, the MBC [2, 20] was 4 to 8 µg/mL, the MBC [2, 21] was 2 to 4 µg/mL and the MBC [2, 22] was 1 to 2 µg/mL. It also gave an MBC [2, 23] of 16 to 32 µg/mL, an MBC [2, 24] of 4 to 8 µg/mL and an MBC [2, 25] of 16 to 32 µg/mL. The MBC [2, 26] was 4 to 8 µg/mL, the MBC [2, 27] was 2 to 4 µg/mL and the MBC [2, 28] was 4 to 8 µg/mL. It also gave an MBC [2, 29] of 8 to 16 µg/mL, an MBC [2, 30] of 2 to 4 µg/mL and an MBC [2, 31] of 16 to 32 µg/mL. For the same molecule, the MBC [2, 32] was 16 to 32 µg/mL, the MBC [2, 33] was 8 to 16 µg/mL and the MBC [2, 34] was 16 to 32 µg/mL. The MBC [2, 35] was 8 to 16 µg/mL, the MBC [2, 36] was 8 to 16 µg/mL and the MBC [2, 37] was 2 to 4 µg/mL. For the same molecule, the MIC ([3]; P. acnes Isolate 1) was 8 to 16 µg/mL, the MIC ([3]; P. acnes Isolate 2) was 8 to 16 µg/mL and the MIC ([3]; P. acnes Isolate 3) was 8 to 16 µg/mL. It also gave an MIC ([3]; P. acnes Isolate 4) of 8 to 16 µg/mL, an MIC ([3]; P. acnes Isolate 5) of 16 to 32 µg/mL and an MIC ([3]; P. acnes Isolate 6) of 8 to 16 µg/mL. The MIC ([3]; P. acnes Isolate 7) was 8 to 16 µg/mL, the MIC ([3]; P. acnes NCTC 737) was 16 to 32 µg/mL and the “activity against Acinetobater spp. (in words)” value [4] was “inactive”.

Reference: US20080096894A1, “Anti-Bacterial Compounds” (ASTON UNIVERSITY, priority 2005, published 2008)
